The target in one experiment is T1, human TLR7 (hTLR7) (Homo sapiens, UniProt Q9NYK1).
T1 construct: host or cells: HEK-Blue TLR7 cells (engineered human embryonic kidney cells)
T1 sequence (Q9NYK1 27-1049): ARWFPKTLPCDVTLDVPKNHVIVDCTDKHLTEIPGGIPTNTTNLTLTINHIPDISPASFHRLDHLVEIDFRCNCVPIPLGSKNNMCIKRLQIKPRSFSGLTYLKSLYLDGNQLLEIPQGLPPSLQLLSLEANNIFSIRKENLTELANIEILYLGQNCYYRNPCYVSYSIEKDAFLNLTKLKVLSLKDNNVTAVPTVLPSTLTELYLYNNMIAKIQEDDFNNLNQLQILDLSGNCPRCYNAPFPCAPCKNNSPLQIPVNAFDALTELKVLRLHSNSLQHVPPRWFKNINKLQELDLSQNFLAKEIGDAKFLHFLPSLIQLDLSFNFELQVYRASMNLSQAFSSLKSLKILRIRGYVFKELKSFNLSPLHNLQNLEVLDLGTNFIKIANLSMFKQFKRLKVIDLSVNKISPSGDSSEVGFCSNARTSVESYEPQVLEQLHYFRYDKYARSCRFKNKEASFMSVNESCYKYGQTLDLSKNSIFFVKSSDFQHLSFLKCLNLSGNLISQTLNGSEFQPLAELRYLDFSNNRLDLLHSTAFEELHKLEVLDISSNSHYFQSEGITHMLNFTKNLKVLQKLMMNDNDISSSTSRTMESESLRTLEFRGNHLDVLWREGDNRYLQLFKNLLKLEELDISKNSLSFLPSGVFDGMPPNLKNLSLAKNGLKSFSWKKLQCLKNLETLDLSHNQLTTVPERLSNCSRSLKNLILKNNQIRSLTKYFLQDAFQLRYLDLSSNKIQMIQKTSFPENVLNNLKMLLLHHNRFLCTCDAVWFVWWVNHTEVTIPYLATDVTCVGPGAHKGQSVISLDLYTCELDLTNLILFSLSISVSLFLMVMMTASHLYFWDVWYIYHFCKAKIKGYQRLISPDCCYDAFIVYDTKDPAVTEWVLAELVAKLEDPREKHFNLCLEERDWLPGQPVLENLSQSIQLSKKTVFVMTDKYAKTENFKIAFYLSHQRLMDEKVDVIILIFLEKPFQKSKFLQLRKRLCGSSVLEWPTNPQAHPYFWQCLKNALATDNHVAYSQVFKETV
Nature of the experiment: Human TLR7 agonist activity assay (HEK-Blue TLR7 SEAP reporter). It counts as cell-based. To be noted: HEK-Blue TLR7 cells, 18 h incubation, Quanti-Blue, OD 620 nm, some values average of multiple measurements. A digest of the protocol:
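HEK-Blue TLR7 cells seeded 16-18 h, then exposed to compound for 18 h at 37 °C, 5% CO2. Secreted SEAP read with Quanti-Blue at OD 620 nm after 30 min. EC50 taken as concentration giving half-maximal response between baseline and maximum; some values averaged over repeats.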

The next experiment concerns the target T2, human TLR8 (hTLR8) (Homo sapiens, UniProt Q9NR97).
T2 construct: expressed in transfected cells
T2 sequence (Q9NR97 27-1041): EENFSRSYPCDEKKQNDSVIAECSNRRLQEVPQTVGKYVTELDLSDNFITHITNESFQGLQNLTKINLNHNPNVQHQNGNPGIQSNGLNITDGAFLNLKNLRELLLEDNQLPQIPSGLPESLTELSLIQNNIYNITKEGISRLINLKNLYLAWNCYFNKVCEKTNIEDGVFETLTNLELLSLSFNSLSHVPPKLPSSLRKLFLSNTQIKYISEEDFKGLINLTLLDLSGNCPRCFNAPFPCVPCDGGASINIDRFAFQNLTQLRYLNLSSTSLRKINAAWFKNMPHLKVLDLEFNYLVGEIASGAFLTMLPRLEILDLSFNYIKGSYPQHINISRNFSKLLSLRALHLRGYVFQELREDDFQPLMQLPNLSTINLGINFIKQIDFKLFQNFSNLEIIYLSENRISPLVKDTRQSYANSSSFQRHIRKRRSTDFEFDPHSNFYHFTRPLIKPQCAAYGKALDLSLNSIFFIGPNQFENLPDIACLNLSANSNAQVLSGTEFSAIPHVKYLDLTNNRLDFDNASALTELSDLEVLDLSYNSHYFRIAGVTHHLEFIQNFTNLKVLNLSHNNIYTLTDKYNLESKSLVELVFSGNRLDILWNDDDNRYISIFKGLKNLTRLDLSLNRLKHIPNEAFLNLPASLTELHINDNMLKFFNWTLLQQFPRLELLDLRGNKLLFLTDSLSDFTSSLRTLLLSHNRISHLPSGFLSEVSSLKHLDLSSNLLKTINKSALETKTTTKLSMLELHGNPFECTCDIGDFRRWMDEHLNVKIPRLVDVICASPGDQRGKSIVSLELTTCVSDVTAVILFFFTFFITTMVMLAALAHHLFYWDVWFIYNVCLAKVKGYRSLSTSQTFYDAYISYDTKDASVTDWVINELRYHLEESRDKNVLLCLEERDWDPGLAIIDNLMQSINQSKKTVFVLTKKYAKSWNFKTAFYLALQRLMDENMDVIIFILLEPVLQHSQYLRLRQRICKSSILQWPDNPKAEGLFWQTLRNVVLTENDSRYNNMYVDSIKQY
Put plainly: Human TLR8 agonist activity assay (measured in a similar manner). The settings on record: HEK-Blue TLR cells, SEAP reporter, measured in a similar manner to TLR7; some values average of multiple measurements. The format is cell-based. A digest of the protocol:
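Compounds were added to HEK-Blue TLR8 reporter cells, pre-incubated 16-18 h, then treated 18 h at 37° C, 5% CO2. SEAP output was measured with Quanti-Blue (30 min) at OD 620 nm. Some values are averages of multiple measurements.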

The source of these data is US20250282776A1, “Bicyclic TLR7 Agonists and Uses Thereof” (Bristol-Myers Squibb Company, priority 2024, published 2025).

The EC50 is the concentration needed to bring the measured effect to its halfway point. Low values mean an effect from little substance, high ones a need for much substance.

With `CCCCN(CCO)c1nc(N)nc2cn(Cc3cc(OC)c(C4CCN(C5CCOCC5)CC4)cc3OC)nc12` [Compound 108], the EC50 turned out to be 1160 nM on human TLR7 (hTLR7) and 1880 nM at human TLR8 (hTLR8).

For the compound `CCCCN(CCO)c1nc(N)nc2cn(Cc3ccc(CN[C@@H]4CCCN(C(=O)OC)C4)c4cccnc34)nc12` [Compound 185, Methyl (R)-3-(((8-((5-amino-7-(butyl(2-hydroxyethyl)amino)-2H-pyrazolo[4,3-d]pyrimidin-2-yl)methyl)quinolin-5-yl)methyl)amino) piperidine-1-carboxylate], the EC50 at human TLR7 (hTLR7) came to 499 nM; on human TLR8 (hTLR8) it was 508 nM.

Consider `CCCCN(CCO)c1nc(N)nc2cn(Cc3ccc(CN[C@H]4CCOC[C@H]4C)cc3OC)nc12` [Compound 139], for which the EC50 amounted to 1220 nM on human TLR7 (hTLR7) and 542 nM on human TLR8 (hTLR8).

As for `CCCCN(CCO)c1nc(N)nc2cn(Cc3ccc(CNC4CCOC4(C)C)cc3OC)nc12` (centres unmarked) [Compound 153], the figures for the EC50 at human TLR7 (hTLR7) and at human TLR8 (hTLR8) were 615 nM and 306 nM, respectively.

`CCCCN(CCO)c1nc(N)nc2cn(Cc3c(F)cc(CNCC(C)(C)C)cc3OC)nc12` [Compound 80]: the values for the concentration giving a half-maximal response (EC50) on human TLR7 (hTLR7) and on human TLR8 (hTLR8) were 1410 nM and 1620 nM, respectively.

`CCCCN(CCO)c1nc(N)nc2cn(Cc3ncc(CNC4CCC4)cc3OC)nc12` [Compound 182]: the EC50 worked out at 865 nM on human TLR7 (hTLR7) and 1770 nM at human TLR8 (hTLR8).

As to `CCCCN(CCO)c1nc(N)nc2c(C)n(Cc3ccc(CNC4CCOCC4)cc3OC)nc12` [Compound 212, 2-((5-Amino-2-(2-methoxy-4-(((tetrahydro-2H-pyran-4-yl)amino)methyl)benzyl)-3-methyl-2H-pyrazolo[4,3-d]pyrimidin-7-yl) (butyl)amino) ethan-1-ol], the EC50 came to 148 nM at human TLR7 (hTLR7) and 112 nM on human TLR8 (hTLR8).

On to `CCCCN(CCO)c1nc(N)nc2cn(Cc3ccc(CNC4CCC4)cc3C(F)F)nc12` [Compound 98], for which the concentration giving a half-maximal response (EC50) at human TLR7 (hTLR7) turned out to be 1560 nM; at human TLR8 (hTLR8), 1150 nM.

With `CCCCN(CCO)c1nc(N)nc2cn(Cc3ccc(CNC4CCOC(C)C4)cc3OC)nc12` (single isomer, unassigned) [Compound 122], the figures for the EC50 on human TLR7 (hTLR7) and at human TLR8 (hTLR8) were 561 nM and 189 nM, respectively.

On to `CCCCN(CCO)c1nc(N)nc2cn(Cc3ccc(CNC4CCC4)c4cn[nH]c34)nc12` [Compound 207], for which the EC50 on human TLR7 (hTLR7) was 2380 nM; on human TLR8 (hTLR8), 1180 nM.

As to `CCCCN(CCO)c1nc(N)nc2cn(Cc3ccc(CNC4CCOCC4)cc3OC)nc12` [Compound 3], the EC50 at human TLR7 (hTLR7) is 970 nM; on human TLR8 (hTLR8), 596 nM.

For `CCCCCN(CCO)c1nc(N)nc2cn(Cc3ccc(CNC4CCC4)cc3OC)nc12` [Compound 44], the concentration for a half-maximal effect (EC50) at human TLR7 (hTLR7) came out at 825 nM; at human TLR8 (hTLR8), 705 nM.

For `CCCCN(CCO)c1nc(N)nc2cn(Cc3ccc(CNC(C)C)cc3)nc12` [Compound 162], the figures for the EC50 on human TLR7 (hTLR7) and on human TLR8 (hTLR8) were 1570 nM and 805 nM, respectively.

Turning to `CCCCN(CCO)c1nc(N)nc2cn(Cc3c(F)cc(C4CCN(C(C)C)CC4)cc3C#N)nc12` [Compound 151], the EC50 came to 612 nM at human TLR7 (hTLR7) and 1830 nM on human TLR8 (hTLR8).

Turning to `CCCCN(CCO)c1nc(N)nc2cn(Cc3c(F)cc(C4CCN(C5CCOCC5)CC4)cc3OC)nc12` [Compound 37, 2-((5-amino-2-(2-fluoro-6-methoxy-4-(1-(tetrahydro-2H-pyran-4-yl)piperidin-4-yl)benzyl)-2H-pyrazolo[4,3-d]pyrimidin-7-yl)(butyl)amino)ethan-1-ol], the EC50 on human TLR7 (hTLR7) stood at 176 nM; at human TLR8 (hTLR8) it was 516 nM.

On to `CCCCN(CCO)c1nc(N)nc2cn(Cc3ccc(CNC4C[C@@H](C)O[C@@H](C)C4)cc3OC)nc12` (some centres unmarked) [Compound 166], for which the EC50 on human TLR7 (hTLR7) worked out at 694 nM; on human TLR8 (hTLR8) it was 529 nM.

As for `CCCCN(CCO)c1nc(N)nc2cn(Cc3ccc(CN[C@H]4C[C@H](OCC)C4)cc3OC)nc12` [Compound 101], the EC50 on human TLR7 (hTLR7) came out at 1600 nM; at human TLR8 (hTLR8), 1570 nM.

Turning to `CCCCN(CCO)c1nc(N)nc2cn(Cc3ccc(CN4CCN(C5CCC5)CC4)c4cccnc34)nc12` [Compound 60], the EC50 worked out at 326 nM at human TLR7 (hTLR7) and 469 nM at human TLR8 (hTLR8).

As for `CCCCN(CCO)c1nc(N)nc2cn(Cc3ccc(CN4CC5(CCO5)C4)cc3OC)nc12` [Compound 28], the EC50 at human TLR7 (hTLR7) was 284 nM; on human TLR8 (hTLR8) it was 266 nM.

For the compound `CCCCN(CCO)c1nc(N)nc2cn(Cc3ccc(CNC(C)(C)C)cc3OC)nc12` [Compound 7], the EC50 on human TLR7 (hTLR7) is 969 nM; on human TLR8 (hTLR8) it was 602 nM.

`CCCCN(CCO)c1nc(N)nc2cn(Cc3c(F)cc(CN[C@H]4C[C@@H](OC)C4)cc3F)nc12` [Compound 118]: the EC50 turned out to be 1580 nM on human TLR7 (hTLR7) and 2500 nM on human TLR8 (hTLR8).

In the case of `CCCCN(CCO)c1nc(N)nc2cn(Cc3ccc(CNC4CCC4)c4scnc34)nc12` [Compound 184], the EC50 on human TLR7 (hTLR7) was found to be 401 nM; on human TLR8 (hTLR8) it was 310 nM.

In the case of `CCCCN(CCO)c1nc(N)nc2cn(Cc3c(OC)cc(CNC(C)C)cc3OC)nc12` [Compound 146], the values for the EC50 on human TLR7 (hTLR7) and at human TLR8 (hTLR8) were 1820 nM and 1770 nM, respectively.

With `CCCCN(CCO)c1nc(N)nc2cn(Cc3c(OC)cc(CN[C@@H]4CCOC4)cc3OC)nc12` [Compound 145], the figures for the EC50 on human TLR7 (hTLR7) and on human TLR8 (hTLR8) were 1440 nM and 2020 nM, respectively.

As to `CCCCN(CCO)c1nc(N)nc2cn(Cc3ccc(CNCC4CCC4)cc3C(F)F)nc12` [Compound 130], the EC50 on human TLR7 (hTLR7) is 1900 nM; on human TLR8 (hTLR8), 1880 nM.

As to `CCCCN(CCO)c1nc(N)nc2cn(Cc3c(F)cc(N4CCC(N[C@@H]5CCCOC5)CC4)cc3F)nc12` [Compound 132], the EC50 on human TLR7 (hTLR7) was 389 nM; at human TLR8 (hTLR8), 1860 nM.

With `CCCCN(CCO)c1nc(N)nc2cn(Cc3c(F)cc(CN[C@@H]4CCOC4)cc3F)nc12` [Compound 116], the EC50 at human TLR7 (hTLR7) is 31 nM; on human TLR8 (hTLR8), 1020 nM.

Take `CCCCN(c1nc(N)nc2cn(Cc3c(F)cc(C4CCN(C5CC6(COC6)C5)CC4)cc3OC)nc12)C(C)CO` (centres unmarked) [Compound 164]: the EC50 worked out at 196 nM at human TLR7 (hTLR7) and 614 nM on human TLR8 (hTLR8).

For `CCCCN(CCO)c1nc(N)nc2cn(Cc3c(F)cc(N4CCC(NC5CC6(COC6)C5)CC4)cc3F)nc12` [Compound 133], the figures for the EC50 at human TLR7 (hTLR7) and on human TLR8 (hTLR8) were 513 nM and 2100 nM, respectively.

Regarding `CCCCNCc1ccc(Cn2cc3nc(N)nc(N(CCO)CCCC)c3n2)c(OC)c1` [Compound 12], the EC50 was 661 nM on human TLR7 (hTLR7) and 477 nM on human TLR8 (hTLR8).

In the case of `CCCCN(CCO)c1nc(N)nc2cn(Cc3ccc(CNCCOC)cc3OC)nc12` [Compound 10], the EC50 is 1330 nM on human TLR7 (hTLR7) and 1450 nM on human TLR8 (hTLR8).
